From patent US8901310B2, “Tricyclic compounds, compositions, and methods” (Pfizer Inc., priority 2007, dated 2014)

Tests used:
[1] = Solubility and intrinsic dissolution; format: physicochemical; details: compared with Example 1
[2] = system: osteocalcin; assay: Serum osteocalcin suppression, 28-day repeat dose mouse model; format: in vivo; details: for Osteocalcin Suppression (ED80 dose): oral gavage 28 days, serum osteocalcin; for Serum osteocalcin (OC) EAUC50 / Serum osteocalcin (OC) EAUC80: data set 2, 28-day repeat dose model
[3] = system: Mouse Collagen-Induced Arthritis; assay: Traditional mouse collagen-induced arthritis (mCIA) model; format: in vivo
Method: (§1) Mouse Collagen-induced arthritis is a commonly used chronic, preclinical model of rheumatoid arthritis in which joint swelling and bone destruction occur following immunization with type II collagen. Reduction of disease incidence and severity has been shown previously to be predictive of disease-modification and signs and symptoms mitigation, respectively, in a clinical setting.
In the traditional mCIA model, male DBA/J mice were immunized with 50 μg chick type II collagen (cCII) in complete Freund's adjuvant and then boosted 21 days later with 50 μg cCII in incomplete Freund's adjuvant. Treatment with compounds was initiated on the morning of the boost and continued for 56 days. The effectiveness of treatment was measured by disease incidence (i.e., number of mice showing any sign of disease) and disease severity, both of which were measured twice a week.

[4] = system: IL-6; assay: IL-6 production in IL-1β-stimulated A549 cells; format: cell-based, human
Method: IL-6 IC50 and % Inhibition
Human A549 lung epithelial cells (American Type Culture Collection, Rockville, Md.) were cultured in Kaighn's F-12K medium with penicillin-streptomycin (10 U/mL) and 10% heat-inactivated fetal bovine serum (all from Invitrogen, Grand Island, N.Y.). A549 cells were plated at a density of 30,000 cells/well in 96-well plates and incubated overnight at 37° C. and with 5% CO2. The cells were serum-starved by replacing the growth medium with serum-free Kaighn's F-12K medium with penicillin-streptomycin (10 U/mL) and, again, incubating overnight at 37° C. and with 5% CO2. On the third day, the medium was replaced with fresh serum-free medium and the cells were incubated with or without compound (vehicle was DMSO at 0.1% maximum concentration) for approximately 1 hour and then stimulated with 1 ng/mL recombinant human IL-1β (R&D Systems, Minneapolis, Minn.) for 20 hours at 37° C. and with 5% CO2. Cell supernatants were collected for determination of IL-6 levels using MSD (Meso Scale Discovery, Gaithersburg, Md.) 96-well Single Spot plates as per the manufacturer's instructions. Plates were read with an MSD Sector Imager 6000. […] Vehicle was used to define the 0% inhibition control. Percent inhibition for each compound concentration, relative to these controls, was calculated using Excel (Microsoft, Redmond, Wash.). […]

[5] = system: house dust mite-induced BAL inflammatory cell influx; assay: House dust mite model of asthma, BAL fluid cell infiltration; format: in vivo, mouse; details: mice, 0.1, 1 and 10 mg/kg, p.o., b.i.d.
[6] = system: TNFα; assay: LPS-induced serum TNFα suppression, 28-day repeat dose mouse model; format: in vivo
[7] = system: Mouse Collagen-Induced Arthritis; assay: Therapeutic mouse collagen-induced arthritis (mCIA) model; format: in vivo
Description: as §1
In the therapeutic mCIA model, induction of disease incidence and severity was synchronized via LPS stimulation. Male DBA/J mice were immunized with 100 ug of bovine type II collagen (bCII) on day 0. All mice received an intraperitoneal injection of 20 μg of LPS on day 28 and disease was allowed to develop through day 34. At day 34, all mice had disease (incidence=100%) with an average severity score of seven. Dosing of compounds was initiated in the therapeutic mode on day 34 and continued through day 49. Different treatments were compared by measuring the decrease in incidence (i.e., resolution of disease) and the decrease in severity of paw swelling over time.

[8] = Plasma exposure (AUC) in the mouse; format: in vivo
Description: Drug exposure, defined as drug plasma concentrations integrated over time
Due to blood volume sampling limitations in mice, AUC(0-4 hr) values were used to make pharmacodynamic comparisons.

[9] = system: cortical bone formation rate; assay: Cortical bone histomorphometry, bone formation rate (BFR); format: in vivo, mouse
Method: Sigma-Aldrich, St. […] Calcein incorporates into the bone mineral and allows measurement of bone formation rate. Calcein was dissolved in 2% sodium bicarbonate. During the tissue harvest, the left tibiae were excised and cleaned for cortical histomorphometry measurements. After all skin and muscle were removed, tibiae were placed in 70% ethanol (4° C.) in the dark for a minimum of 24 hours. Ground transverse sections were used for histomorphometric analysis of cortical bone. Bones were sectioned using a low-speed saw (Isomet, Buehler, Lake Bluff, Ill.) equipped with a diamond wafer blade. The end of each tibia was removed proximal to tibia-fibula synostosis and a […] cross-section was cut. Using a roughened glass plate and a cork, sections were ground to […] until transparent and all labels were distinguishable under a fluorescent microscope. […] Sigma-Aldrich, St. Louis, Mo.). Sections were mounted using Eukitt Quick Mounting Medium (#03989, Sigma-Aldrich, St. Louis, Mo.) after which coverslip was applied. […] Bone formation rate was calculated by the following equation: (Inter-label width/Label interval)*(Labeled perimeter/Bone perimeter). At least five samples were measured from each treatment group in each study.

[10] = molecular target: full-length glucocorticoid (GR) protein (Homo sapiens (Human), UniProt P04150); assay: Glucocorticoid receptor fluorescence polarization ligand binding (GRFP) assay
full-length glucocorticoid (GR) protein, sequence (P04150 whole entry): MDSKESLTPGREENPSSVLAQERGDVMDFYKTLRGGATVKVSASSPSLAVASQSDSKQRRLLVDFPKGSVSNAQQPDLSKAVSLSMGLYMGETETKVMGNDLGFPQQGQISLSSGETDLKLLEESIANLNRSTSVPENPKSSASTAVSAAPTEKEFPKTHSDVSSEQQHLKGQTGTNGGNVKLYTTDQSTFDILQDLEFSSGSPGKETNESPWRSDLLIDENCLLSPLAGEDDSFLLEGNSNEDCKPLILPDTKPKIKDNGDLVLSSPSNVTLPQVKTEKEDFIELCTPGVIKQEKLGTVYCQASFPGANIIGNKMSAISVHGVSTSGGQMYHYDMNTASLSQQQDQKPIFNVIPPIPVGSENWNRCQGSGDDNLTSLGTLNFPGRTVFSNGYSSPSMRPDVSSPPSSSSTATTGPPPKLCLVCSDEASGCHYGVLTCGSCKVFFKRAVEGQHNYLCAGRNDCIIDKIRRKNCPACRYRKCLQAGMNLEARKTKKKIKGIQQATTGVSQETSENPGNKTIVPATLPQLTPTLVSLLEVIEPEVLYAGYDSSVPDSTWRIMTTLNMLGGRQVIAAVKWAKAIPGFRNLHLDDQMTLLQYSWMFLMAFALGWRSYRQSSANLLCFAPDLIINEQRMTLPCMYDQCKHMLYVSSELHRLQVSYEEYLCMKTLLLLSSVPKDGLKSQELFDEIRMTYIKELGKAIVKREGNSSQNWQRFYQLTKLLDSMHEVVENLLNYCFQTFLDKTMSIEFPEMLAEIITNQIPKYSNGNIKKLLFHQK
Description: The glucocorticoid receptor fluorescence polarization ligand binding (GRFP) assay is used to evaluate direct binding of testing compounds to full-length glucocorticoid (GR) protein. Reagents for this assay are purchased from Invitrogen in a test kit. A fluorescent labeled GR ligand is used as a fluorescent tracer and test compounds compete with the fluorescent tracer for GR binding. The change in polarization value in the presence of test compounds is due to binding of test compounds to GR and is used to determine IC50 and relative binding affinity of test compounds for GR.

[11] = data set 2, 28-day repeat dose model, unit assumed
[12] = data set 2, 28-day repeat dose model

For `Cc1ncccc1NC(=O)c1ccc2c(c1)CC[C@@H]1C[C@@](OP(=O)(O)O)(C(F)(F)F)CC[C@@]21Cc1ccccc1` [Example 2, (2R,4αS,10αR)-4α-benzyl-7-((2-methylpyridin-3-yl)carbamoyl)-2-(trifluoromethyl)-1,2,3,4,4α,9,10,10α-octahydrophenanthren-2-yl dihydrogen phosphate], the “solubility and intrinsic dissolution” value [1] was “enhanced”.

In the case of `Cc1ncccc1NC(=O)c1ccc2c(c1)C(=O)C[C@@H]1C[C@@](O)(C(F)(F)F)CC[C@@]21Cc1ccccc1` [Comparator E, (4βS,7R,8αS)-4β-benzyl-7-hydroxy-N-(2-methylpyridin-3-yl)-10-oxo-7-(trifluoromethyl)-4β,5,6,7,8,8α,9,10-octahydrophenanthrene-2-carboxamide], the “Osteocalcin Suppression (ED80 dose)” value ([2]; mouse) is reported as 1.71 mg/kg.

With `Cc1ncccc1NC(=O)c1ccc2c(c1)CC[C@@H]1C[C@@](O)(C(F)F)CC[C@@]21Cc1ccccc1` [Comparator H, (4βS,7R,8αR)-4β-benzyl-7-(difluoromethyl)-7-hydroxy-N-(2-methylpyridin-3-yl)-4β,5,6,7,8,8α,9,10-octahydrophenanthrene-2-carboxamide] the “Osteocalcin Suppression (ED80 dose)” value ([2]; mouse) was 1.46 mg/kg.

In the case of `Cc1ncccc1NC(=O)c1ccc2c(c1)CC[C@@H]1C[C@@](O)(C(F)(F)F)CC[C@@]21Cc1ccccc1` [Example 1, (4βS,7R,8αR)-4β-benzyl-7-hydroxy-N-(2-methylpyridin-3-yl)-7-(trifluoromethyl)-4β,5,6,7,8,8α,9,10-octahydrophenanthrene-2-carboxamide], the “Disease incidence (traditional mCIA) EAUC80” value ([3]; data set 2) is reported as 0.10, the IC50 ([4]; IL-1β 1 ng/mL, listed as Example 1 free base) is reported as 0.36 nM and the Serum osteocalcin (OC) EAUC50 [2] is reported as 1310 ng·h/mL. The Serum osteocalcin (OC) EAUC80 [2] was 4150 ng·h/mL, the “cell infiltration into BAL fluid” value [5] was “mitigated cell infiltration into BAL fluid dose-dependently” and the Serum TNFα EAUC50 [6, 11] was 0.22 µg·h/mL. It also gave a Serum TNFα EAUC80 [6, 11] of 0.33 µg·h/mL, a Disease incidence (therapeutic mCIA) EAUC50 ([7]; data set 2) of 0.12 µg·h/mL and a Disease incidence (therapeutic mCIA) EAUC80 ([7]; data set 2) of 0.33 µg·h/mL. For the same compound, the Disease severity (therapeutic mCIA) EAUC50 ([7]; data set 2, unit assumed) was 0.09 µg·h/mL, the Disease severity (therapeutic mCIA) EAUC80 ([7]; data set 2, unit assumed) was 0.19 µg·h/mL and the “Therapeutic mCIA (ED50 dose)” value ([7]; mouse) was “less than 1 mg/kg”.

In the case of `Cc1ncccc1NC(=O)c1ccc2c(c1)[C@H](O)C[C@@H]1C[C@@](O)(C(F)(F)F)CC[C@@]21Cc1ccccc1` [Comparator F, (4βS,7R,8αR,10R)-4β-benzyl-7,10-dihydroxy-N-(2-methylpyridin-3-yl)-7-(trifluoromethyl)-4β,5,6,7,8,8α,9,10-octahydrophenanthrene-2-carboxamide], the “Osteocalcin Suppression (ED80 dose)” value ([2]; mouse) is reported as over 10 mg/kg.

In the case of `Cc1cnc(NC(=O)c2ccc3c(c2)CC[C@@H]2C[C@@](O)(C(F)(F)F)CC[C@@]32Cc2ccccc2)c(C)n1` [Comparator B, (4βS,7R,8αR)-4β-benzyl-N-(3,5-dimethylpyrazin-2-yl)-7-hydroxy-7-(trifluoromethyl)-4β,5,6,7,8,8α,9,10-octahydrophenanthrene-2-carboxamide], the “Osteocalcin Suppression (ED80 dose)” value ([2]; mouse) is reported as over 10 mg/kg.

With `C[C@]12C=CC(=O)C=C1CC[C@@H]1[C@@H]2[C@@H](O)C[C@@]2(C)[C@H]1CC[C@]2(O)C(=O)CO` [Prednisolone] the “Disease incidence (traditional mCIA) EAUC50” value ([3]; AUC 0-4 hr, mouse) was 0.25 µg·h/mL, the “Disease incidence (traditional mCIA) EAUC80” value ([3]; AUC 0-4 hr, mouse) was 0.60 µg·h/mL and the “Disease incidence (traditional mCIA) EAUC80” value ([3]; data set 2) was 0.50. For the same compound, the “IL-6 % Inhibition” value ([4]; additional result (footnote a)) was 100%, the “AUC(0-4 hr) as share of AUC(0-24 hr)” value [8] was “more than 95%” and the “Serum osteocalcin EAUC50” value ([2]; AUC 0-4 hr, mouse) was 560 ng·h/mL. The “Serum osteocalcin EAUC80” value ([2]; AUC 0-4 hr, mouse) was 1600 ng·h/mL, the Serum osteocalcin (OC) EAUC50 [2] was 560 ng·h/mL and the Serum osteocalcin (OC) EAUC80 [2] was 1640 ng·h/mL. The “Serum TNFα EAUC50” value ([6]; AUC 0-4 hr, mouse) was 0.81 µg·h/mL, the “Serum TNFα EAUC80” value ([6]; AUC 0-4 hr, mouse) was 0.95 µg·h/mL and the Serum TNFα EAUC50 [6, 11] was 0.82 µg·h/mL. The Serum TNFα EAUC80 [6, 11] was 0.95 µg·h/mL, the “TNFα Suppression (ED80 dose)” value ([6]; mouse, oral gavage 28 days, LPS-induced serum TNFα) was 2.10 mg/kg and the “Disease severity (therapeutic mCIA) EAUC50” value ([7]; AUC 0-4 hr, mouse) was 0.38 µg·h/mL. For the same compound, the “Disease severity (therapeutic mCIA) EAUC80” value ([7]; AUC 0-4 hr, mouse) was 1.19 µg·h/mL, the Disease incidence (therapeutic mCIA) EAUC50 ([7]; data set 2) was 0.68 µg·h/mL and the Disease incidence (therapeutic mCIA) EAUC80 ([7]; data set 2) was 1.38 µg·h/mL. The Disease severity (therapeutic mCIA) EAUC50 ([7]; data set 2, unit assumed) was 0.38 µg·h/mL, the Disease severity (therapeutic mCIA) EAUC80 ([7]; data set 2, unit assumed) was 1.19 µg·h/mL and the “Therapeutic mCIA (ED80 dose)” value ([7]; mouse) was 5.5 mg/kg. For the same compound, the “Cortical bone formation rate (BFR) EAUC50” value ([9]; AUC 0-4 hr, mouse) was 0.09 µg·h/mL, the “Cortical bone formation rate (BFR) EAUC80” value ([9]; AUC 0-4 hr, mouse) was 0.60 µg·h/mL and the “Cortical bone formation rate (BFR) EAUC50” value [9, 12] was 0.10. The “Cortical bone formation rate (BFR) EAUC80” value [9, 12] was 0.66.

For `Cc1ncc(NC(=O)c2ccc3c(c2)CC[C@@H]2C[C@@](O)(CCC(F)(F)F)CC[C@@]32Cc2ccccc2)c(C)n1` [Comparator J, (4βS,7S,8αR)-4β-benzyl-N-(2,4-dimethylpyrimidin-5-yl)-7-hydroxy-7-(3,3,3-trifluoropropyl)-4β,5,6,7,8,8α,9,10-octahydrophenanthrene-2-carboxamide], the “Osteocalcin Suppression (ED80 dose)” value ([2]; mouse) was 3.58 mg/kg.

In the case of `Cc1c(NC(=O)c2ccc3c(c2)CC[C@@H]2C[C@@](O)(C(F)(F)F)CC[C@@]32Cc2ccccc2)ccc[n+]1[O-]` [Comparator G], the IC50 [10] is reported as 2.13 nM.

In the case of `Cc1ncccc1NC(=O)c1ccc2c(c1)C=C[C@@H]1C[C@@](O)(C(F)(F)F)CC[C@@]21Cc1ccccc1` [Comparator I, (4βS,7R,8αS)-4β-benzyl-7-hydroxy-N-(2-methylpyridin-3-yl)-7-(trifluoromethyl)-4β,5,6,7,8,8α-hexahydrophenanthrene-2-carboxamide], the “Osteocalcin Suppression (ED80 dose)” value ([2]; mouse) is reported as over 20 mg/kg.

In the case of `Cc1ccncc1NC(=O)c1ccc2c(c1)CC[C@@H]1C[C@@](O)(C(F)(F)F)CC[C@@]21Cc1ccccc1` [Comparator D, (4βS,7R,8αR)-4β-benzyl-7-hydroxy-N-(4-methylpyridin-3-yl)-7-(trifluoromethyl)-4β,5,6,7,8,8α,9,10-octahydrophenanthrene-2-carboxamide], the “Osteocalcin Suppression (ED80 dose)” value ([2]; mouse) is reported as 3.06 mg/kg.

In the case of `Cc1ncccc1NC(=O)c1ccc2c(c1)CC[C@@H]1C[C@@](O)(CCC(F)(F)F)CC[C@@]21Cc1ccccc1` [Comparator C, (4βS,7S,8αR)-4β-benzyl-7-hydroxy-N-(2-methylpyridin-3-yl)-7-(3,3,3-trifluoropropyl)-4β,5,6,7,8,8α,9,10-octahydrophenanthrene-2-carboxamide], the “Osteocalcin Suppression (ED80 dose)” value ([2]; mouse) is reported as 2.84 mg/kg.
